In patent US11981953B2, “Method to screen compounds for antifungal activity and pharmaceutical compositions and methods to treat fungal diseases by inhibiting spore germination” (WISCONSIN ALUMNI RESEARCH FOUNDATION, priority 2018, dated 2024):
In brackets after ≈: the same amount, converted by molar mass. Where a name gives a salt, the structure may show the parent alone. Read-outs that look alike come from different tables or passages of the source.

How the values were obtained:
[1] = test system: Cryptococcus neoformans spores (JEC20 x JEC21); test: Quantitative germination assay (microfluidic devices, cell size and shape); assay type: cell-based; settings: for Inhibition of spore germination: 16 hours; for Germicidal: plated on YPD after the 16-hour experiment; for Inhibition of spore germination, antifungal drugs: concentration not given, bifonazole and econazole nitrate tested outside the microfluidic device, imaged at 0 and 16 hours; for Spore escape from inhibition (words): yeast population increase = escape
Procedure: All germination assays are based on Barkal et al., 2016. Briefly, microfluidic devices were loaded with 1×10^5 spores, and at 0 hours, SD media with drug of interest, were added to the sample. Spores were allowed to germinated at 30° C. in a humidified chamber and cells were monitored every two (2) hours for 16 hours. Each assay was performed in two (2) individual wells with three (3) field of views acquired from each well. All images were analyzed as previously described based on cell shape and size. Population ratio of spores, intermediate, and yeast cells were determined. Error bars in plots are based on variation between all fields of view acquired. […] After the 16-hour experiment, samples were plated on YPD and allowed to grow at 30° C. to determine if drugs were completely germicidal or not based on lack of growth. If assays were unable to be performed in microfluidic devices, the […] spores were incubated in identical conditions outside of PDMS devices and only loaded into devices for image acquisition.

[2] = test system: Aspergillus Fumigatus (AF293); test: Aspergillus fumigatus MIC on conidia; assay type: cell-based; settings: for MIC: Aspergillus fumigatus; for Ability to inhibit Aspergillus fumigatus: testing performed on conidia
Procedure: Conidia at a final concentration of 2×10^4 cells were incubated in RPMI, 0.33 M MOPS, and 2% glucose at pH 7 at varying concentrations of inhibitors, with a final volume of 200 μL.

[3] = test system: Cryptococcus neoformans spore germination; test: High throughput nanoluciferase screen of spore germination (L1300 Selleck FDA-Approved Drug Library); assay type: cell-based; settings: signal relative to negative control
Excerpt: (§1) To identify inhibitors of Cryptococcus neoformans spore germination, a high throughput screen was developed that utilizes a nanoluciferase construct to monitor whether spores germinate in the presence of inhibitor. Briefly a protein luciferase construct was created resulting in a low luciferase signal for non-germinated spores and a high signal from germinated and replicating cells. The screen was coupled with OD600 readings to monitor the ability of compounds to inhibit yeast replication. The examples focused on FDA-approved drugs, as these drugs have the potential of being repurposed into antifungal therapeutics. To determine whether any FDA-approved drugs were able to inhibit Cryptococcus neoformans spore germination and yeast replication, the aforementioned high throughput screen was performed on the L1300 Selleck FDA-Approved Drug Library containing an array of 1108 compounds. This library of compounds is available commercially from Selleck Chemicals, 14408 W Sylvanfield Drive, Houston, Tex. 77014, USA.
(§2) The screening was successful at identifying known antifungal drugs as inhibitors of yeast replication as indicated by an OD600 signal of less than 75% of the negative control (Table 2). For the purpose of these examples, antifungal drugs were defined as any FDA-approved drug used in the treatment of fungal infections. Of these 23 known antifungal drugs, only six (6) were identified as inhibitors of spore germination, indicated by a luciferase signal of less than 30% of the negative control.

[4] = test system: Cryptococcus neoformans (JEC21); test: MIC/MFC experiments (EUCAST based), JEC21; assay type: cell-based; settings: 48 h; for MFC: Cryptococcus neoformans
Procedure: (§3) All minimum inhibitory concentration (MIC) experiments were based on EUCAST methodology. […] After 6-hour incubation, yeast cells were washed in 1×PBS and quantified using a hemocytometer. […] Cryptococcus neoformans cells were incubated for 2 days at 30° C. while Candida albicans strains were incubated for 2 days at 35° C. OD600 readings were used to assess the MIC values for each drug. To determine minimum fungicidal concentrations (MFC) values, 3 μL per well were plated on YPD and allowed to grow for 2 days.

[5] = test system: Cryptococcus neoformans yeast replication; assay type: cell-based; settings: signal relative to negative control
Excerpt: as §1, §2

[6] = test system: Cryptococcus neoformans (H99); test: MIC/MFC experiments (EUCAST based), H99; assay type: cell-based; settings: 48 h; for MFC: Cryptococcus neoformans
Procedure: as §3

[7] = test system: Candida albicans (SC5314); test: MIC/MFC experiments (EUCAST based), Candida albicans; assay type: cell-based; settings: SC5314, 48 h
Procedure: as §3

[8] = test system: JEC20×JEC21 yeast or spores in mouse lung; test: Fungal burden animal studies (mouse lung colony-forming units); assay type: in vivo, Cryptococcus neoformans; settings: for Lung fungal burden (colony-forming units) versus PBS-treated mice: 4 mg/kg/day intranasal for three days from 1-day post-infection, lungs day 4
Procedure: All yeast cells were cultured overnight in YPD, washed and diluted to 5×10^6 cells. For JEC20 and JEC21, 2.5×10^6 cells of each were combined. Spores were cultured as previously described and diluted to 2×10^6 cells. All experiments were performed on 8- to 10-week old C57BL/6J (Jackson Laboratory, Bar Harbor, Me., USA) female mice (5 mice per group). All mice were infected intranasally with a total of 50 μL. All dosing was performed with 4 mg/kg/day or 1×PBS for three (3) days either prior to infection or 1-day post-infection. Mice were sacked day-4 post-infection and lungs were collected, processed, and fungal burden was assessed.
Pentamidine is a successful inhibitor of Cryptococcus neoformans yeast replication in vitro. For repurposing potential, it is important to determine drug efficacy in vivo. For this purpose, the ability of pentamidine to lower the fungal burden in mouse lungs infected by both spores and yeast was determined. One-day post-infection intranasal dosing was begun at 4 mg/kg/day and the mice were treated for three consecutive days. On the fourth day post-infection, lungs were collected and fungal burden was determined. […] See FIG. 8A and FIG. 8B, respectively.
Pentamidine is a successful inhibitor of spore germination in vitro. It is important, though, to determine drug efficacy in vivo. Therefore, the ability of pentamidine to inhibit germination of spores in mouse lungs was determined. […], mice were infected with JEC20×JEC21 spores and 4-days post infection, mouse lungs were collected and lung fungal burden was determined.

[9] = test system: JEC20-GFPxJEC21-GFP spores in mouse lung; test: In vivo germination (cells recovered from mouse lungs 8 hours post infection); design: species or system Cryptococcus neoformans; settings: prophylactic 4 mg/kg/day for three days; cells recovered 8 hours post infection
Procedure: Female mice, 8- to 10-week-old C57BL/6J (Jackson Laboratory) female mice (3 mice per group) were used. Mice were dosed with either 4mg/kg/day or 1×PBS (50 μL) for three (3) consecutive days. Mice were intranasally infected with 2×10^6 JEC20-GFPxJEC21-GFP spores, strains described in Walsh et al., 2018. After 8 hours post-infection, mice were sacked and lavaged with 0.05% TirtonX in 1×PBS. Lavage suspension underwent a series of treatments and washes, in order: red blood cell lysis (ACK lysing buffer, 2 mL, 5 minutes), formaldehyde fixation (4%, 500 μL, 30 minutes) and calcofluor white staining (25 μg/mL, 20 μL for 1 minute). Cells (50-100 per mouse) were imaged, and identified as Cryptococcus neoformans cells based on green fluorescent signal or cyan staining from calcofluor staining. Cells surface area and aspect ratio were measured in ImageJ and cells were classified as spores, intermediates, or yeast based on size and shapes parameters used in the quantitative germination assay.
In vivo spore germination has never been characterized mainly due to technical hurdles. Using a novel assay, Cryptococcus neoformans cells were recovered from prophylactically treated, spore-infected mouse lungs 8 hours post infection. […] Based on size and shape of the cells, the level of in vivo spore germination was quantified.

[10] = Table 5, conidia, lowest concentration with complete absence of germ tubes or hyphae, read-out: MIC
[11] = Table 3, other FDA-approved drugs
[12] = Table 5, yeast, 2 days at 30° C., OD600, read-out: MIC
[13] = Table 5, plated on YPD, 2 days, read-out: MFC
[14] = Table 5, 2 days at 35° C., OD600, read-out: MIC
[15] = Table 4, conidia, lowest concentration with complete absence of germ tubes or hyphae, read-out: MIC
[16] = Table 2, antifungal drugs, less than 30% = inhibitor of germination
[17] = Table 4, yeast, 2 days at 30° C., OD600, read-out: MIC
[18] = Table 4, plated on YPD, 2 days, read-out: MFC
[19] = Table 2, antifungal drugs, less than 75% = inhibitor of yeast replication
[20] = Table 4, 2 days at 35° C., OD600, read-out: MIC

SMILES | Inhibition of spore germination ([1]; 25 μg/mL) | Germicidal ([1]; 25 μg/mL) | MIC [2, 10] | Ability to inhibit Aspergillus fumigatus [2] | Germination Percent Luciferase Signal [3, 11] | MIC [4, 12] | MFC [4, 13] | Replication Percent OD600 [5, 11] | MIC [6, 12] | MFC [6, 13] | MIC [7, 14] | MFC [7, 13] | also measured
CCCCC(CC)CNC(=N)NC(=N)NCCCCCCNC(=N)NC(=N)NCC(CC)CCCC (stereo not shown) [Alexidine HCl] | completely inhibit spore germination | fully germicidal | < 0.78 mg/L | extremely potent | 4.6% | < 0.78 mg/L | < 0.78 mg/L | 29.6% | < 0.78 mg/L | < 0.78 mg/L | < 0.78 mg/L | < 0.78 mg/L | 
c1ccc(-c2ccc(C(c3ccccc3)n3ccnc3)cc2)cc1 (stereo not shown) [Bifonazole] |  |  |  | unable to inhibit |  |  |  |  |  |  |  |  | Inhibition of spore germination, antifungal drugs [1]: able to inhibit spore germination effectively; Spore escape from inhibition (words) [1]: spore escape apparent; MIC [2, 15]: > 100 mg/L; Germination Percent Luciferase Signal [3, 16]: 13.6%; MIC [4, 17]: 6.25 mg/L (≈ 20.1 µM); MFC [4, 18]: 6.25 mg/L (≈ 20.1 µM); Replication Percent OD600 [5, 19]: 33.4%; MIC [6, 17]: 6.25 mg/L (≈ 20.1 µM); MFC [6, 18]: > 100 mg/L; MIC [7, 20]: > 100 mg/L; MFC [7, 18]: > 100 mg/L
CCN(CC)C(=S)SSC(=S)N(CC)CC [Disulfiram] |  |  |  |  | 22.7% |  |  | 65.6% |  |  |  |  | Stall in germination overall ([1]; 25 μg/mL): ~2 h; MIC [2]: 25 mg/L (≈ 84.3 µM); MIC [4]: 3.13 mg/L (≈ 10.6 µM); MFC [4]: 3.13 mg/L (≈ 10.6 µM); MIC [6]: 6.25 mg/L (≈ 21.1 µM); MFC [6]: 6.25 mg/L (≈ 21.1 µM); MFC [7]: 12.5 mg/L (≈ 42.2 µM); MIC [7]: 6.25 mg/L (≈ 21.1 µM)
Clc1ccc(COC(Cn2ccnc2)c2ccc(Cl)cc2Cl)cc1 (stereo not shown) [Econazole nitrate] |  |  |  | able to inhibit its growth |  |  |  |  |  |  |  |  | Inhibition of spore germination, antifungal drugs [1]: able to inhibit spore germination effectively; MIC [2, 15]: 3.13 mg/L; Germination Percent Luciferase Signal [3, 16]: 16.1%; MIC [4, 17]: < 0.78 mg/L; MFC [4, 18]: 6.25 mg/L; Replication Percent OD600 [5, 19]: 33.1%; MIC [6, 17]: < 0.78 mg/L; MFC [6, 18]: 6.25 mg/L; MIC [7, 20]: 6.25 mg/L; MFC [7, 18]: 12.5 mg/L
O=C(Nc1ccc([N+](=O)[O-])cc1Cl)c1cc(Cl)ccc1O [Niclosamide] | completely inhibit germination | not fully germicidal | > 100 mg/L |  | 7.8% | < 0.78 mg/L | 1.56 mg/L (≈ 4.77 µM) | 43.4% | 1.56 mg/L (≈ 4.77 µM) | > 100 mg/L | > 100 mg/L | > 100 mg/L | 
CCCCCCCCOc1ccccc1C(=O)Nc1ccc(C(=O)OCC[N+](C)(CC)CC)cc1 [Otilonium bromide] | completely inhibit spore germination | fully germicidal | 6.25 mg/L | able to inhibit A. fumigatus | 6.9% | 3.13 mg/L | 3.13 mg/L | 29.0% | 3.13 mg/L | 3.13 mg/L | 3.13 mg/L | 3.13 mg/L | 
N=C(N)c1ccc(OCCCCCOc2ccc(C(=N)N)cc2)cc1 [Pentamidine] |  |  |  | unable to inhibit |  |  |  |  |  |  |  |  | Lung fungal burden after prophylaxis versus 1×PBS ([8]; 4 mg/kg/day for three consecutive days prior to infection with JEC20×JEC21 spores, lungs 4-days post infection, FIG. 9, p<0.01): successful in decreasing spore-mediated lung burden; Lung fungal burden (colony-forming units) versus PBS-treated mice ([8]; spore-infected C57BL/6J mice, FIG. 8B, p<0.01): significantly lower fungal burdens in the lung; Lung fungal burden (colony-forming units) versus PBS-treated mice ([8]; yeast-infected C57BL/6J mice, FIG. 8A, p<0.05): significantly lower fungal burdens in the lung; Germicidal activity ([1]; 50 μg/mL): showed germicidal activity; Spore germination over a range of concentrations ([1]; as concentrations increased): spore germination became slower; Germicidal activity ([1]; lower concentration): not germicidal; Spore escape from inhibition (words) ([1]; listed as pentamidine): no individual spores were able to escape inhibition; Level of in vivo spore germination (spore, intermediate, yeast percent) [9]: higher spore percent and a lower yeast percent
CO[C@H]1C[C@@H]2CC[C@@H](C)[C@@](O)(O2)C(=O)C(=O)N2CCCC[C@H]2C(=O)O[C@H]([C@H](C)C[C@@H]2CC[C@@H](OC(=O)C(C)(CO)CO)[C@H](OC)C2)CC(=O)[C@H](C)/C=C(\C)[C@@H](O)[C@@H](OC)C(=O)[C@H](C)C[C@H](C)/C=C/C=C/C=C/1C [Temsirolimus] | partially inhibit germination | Neither temsirolimus nor disulfiram were germicidal | > 100 mg/L |  | 21.3% | 6.25 mg/L (≈ 6.07 µM) | 6.25 mg/L (≈ 6.07 µM) | 59.2% | 6.25 mg/L (≈ 6.07 µM) | 6.25 mg/L (≈ 6.07 µM) | 1.56 mg/L (≈ 1.51 µM) | 1.56 mg/L (≈ 1.51 µM) | 
